Experimental data from US20040235717A1, “Suppression of androgen receptor transactivation through new pathways to ar and ar coactivators and repressors” (priority 2001, published 2004).
Entries after “also recorded” stand apart in the source; their conditions may differ.

Columns and labels:
[1] = system: IL-6 protein expression; test: IL-6 secretion by LNCaP cells (ELISA); assay type: cell-based
Method: 11. […] IL-6 secretion in the medium was determined by ELISA. […] LNCaP cells, were serum starved for 24 h. […] PI3K activity was measured using PI as a substrate. The origin (ori) of the chromatogram and PI3-phosphate (PI3P) were indicated.
259. […] The IL-6 protein level in the supernatants was then evaluated by BLISA.

[2] = system: wtAR, mtARt877a, PR, VDR, ER transactivation; test: Steroid receptor transactivation with Smad3 in DU145 cells (wtAR, mtARt877a, PR, VDR, ER); assay type: cell-based, human; settings: for wtAR transactivation response to ligand: DHT 10 nM, HF 1 μM, E2 10 nM
[3] = system: p21 expression; test: p21 promoter activity (luciferase) and p21 protein expression; assay type: cell-based; settings: PC-3 cells; 10 nM DHT
Method: (§1) 18. […] (A) Akt suppressed androgen/AR-induced p21 promoter activity. […] (B) Androgen/AR-induced PC-3(AR)6 apoptosis and p21 protein expression was blocked by Akt PC-3(AR)6 was transfected with pCDNA3, cAkt, or dAkt, as indicated, for 16 h. […] (C) AR-induced p21 protein expression was enhanced by dAkt in LNCaP cells. […] LNCaP stable transfection with dAkt was confirmed by western blot assay using phospho-Akt (Ser473) antibody. […] TPA was then added for another 24 h and cell apoptosis was determined by TUNEL assay. […] IGF-1 was added for another 30 min, followed by 10 nM TPA treatment for another 24 h. The apoptosis was determined by TUNEL assay. The data are means±s.d. from three independent experiments.

[4] = system: LNCaP cells; test: DHT/TPA-induced apoptosis in LNCaP cells, TUNEL assay; assay type: cell-based; settings: for LNCaP cell apoptosis, agent per se: 10 nM DHT or 1 nM TPA alone
Method: as §1
(§2) 281. The TUNEL assay was performed to measure the cell apoptosis according to the standard procedures (Oncogene Research Products). At least 200 cells were scored for each sample and the data are means±s.d. from three independent experiments.

[5] = system: PSA mRNA expression; test: PSA mRNA expression in LNCaP cells, Northern blot; assay type: cell-based
[6] = system: PI3K; test: PI3K activity assay using phosphatidylinositol as substrate; assay type: cell-based, human; settings: LNCaP
Method: (§3) 251. IL-6's effect on PI3K activity was tested. After serum starvation for 24 h, LNCaP, PC-3 or DU145 cells were treated with 50 μg/ml IL-6 for 30 minutes. The cells were then harvested. PI3K activity was measured by using phosphatidylinositol (PT) as a substrate. […] The transactivation was measured by CAT activity.
260. […] PI3K activity was measured using PI as a substrate.
265. PI3K activity was determined as previously described. Vlahos, C. J. et al, J. Biol. Chem. 269, 5241-5148 (1994).

[7] = system: PC-3(AR)2, PC-3(AR)6, SAR-91 cells; test: Androgen/AR-induced apoptosis, TUNEL assay in PC-3(AR)2, PC-3(AR)6 and SAR-91 cells; assay type: cell-based; settings: HF 5 μM, IGF-1 100 ng/ml, DHT 10 nM, 3 days
Description: 17. […] (A) PC-3(AR)2 and PC-3(AR)6 expressed AR protein. PC-3 cells were stably transfected with AR, followed by selection with hygromycin B, and confirmed by western blotting using AR antibody NH27, while LNCaP was used as a positive control. (B) Androgen/AR-induced apoptosis in PC-3(AR)2, PC-3(AR)6, and SAR-91 were inhibited by PI(3)K/Akt pathway. […] The data are means±s.d. from three independent experiments.
as §1, §2

[8] = system: AR transactivation; test: AR transactivation with TSA, MMTV-LUC in PC3-AR2 cells; assay type: cell-based
[9] = system: Akt / AR phosphorylation; test: Akt activation and in vivo AR phosphorylation in COS-1 cells; assay type: cell-based
Method: 14. […] COS-1 cells were pretreated with ethanol or 20 μM LY294002 for 30 min, followed by treatment with 100 ng/ml IGF-1 for 30 min. The total cell lysates were immunoprecipitated by anti-Akt antibody (New England Biolabs). The immunocomplex was subjected to SDS-PAGE, followed by immunoblot with phospho-Akt (S473) antibody or Akt antibody. (B) IGF-1 phosphorylates AR in vivo via Akt. COS-1 cells were cultured in [^32P]-PO4-containing medium. AR immunocomplex was subjected to SDS-PAGE followed by autoradiography. Immunobloting confirmed equivalent amounts of AR in immunocomplex. (C) cAkt, but not dAkt, phosphorylates wtAR, but not mtAR S210A and mtAR S790A in vivo. COS-1 cells were transfected with wtAR, mtAR S210A, or mtAR S790A in combination with PCDNA3 vector, cAkt, or dAkt. After 24 h transfection, cells were labeled with [^32P]-PO4 for 4 h. (D) Suppression of AR transactivation by Akt in a dose-dependent manner. […] Transactivation was measured by CAT activity using MMTV-CAT as a reporter. (E) mtAR S210A is resistant to Akt suppressive effect on AR transactivation. DU145 cells were transfected with plasmids encoding wtAR, mtAR S210A or mtAR S790A in presence of cAkt or dAkt for 24 h. Ligand treatment and AR transactivation were performed as previously described. The data are means±s.d. from three independent experiments.
282. […]

[10] = system: AR transactivation; test: AR transactivation, MMTV-CAT reporter in DU145 cells transfected with AR; assay type: cell-based, human
Description: 250. To dissect the divergent effects of IL-6 in prostate tumor growth, Qui, Y. et al., Nature 393, 83-85 (1998); Hobisch, A. et al., Cancer Res. 58, 4640-4645 (1998); Ritchie, C. K. et al., Endocrinology 138, 1145-1150 (1997), the potential influences of IL-6 on the transactivation of AR, the master regulator of the prostate tumor growth were studied. Chang, C. et al., Science 240, 324.326 (1988); Chang, C. et al., Crit. Rev. Eukaryotic Gene Expression 5, 97-125 (1995). Because IL-6 has two major signal cascades, mitogen-activated protein kinase (MAPK) and phosphatidylinositol 3-kinase (PI3K), Qui, Y. et al., Nature 393, 83-85 (1998); Qui, Y. et al., Proc. Natl. Acad. Sci. USA 95, 3644-3649 (1998), inhibitors were applied to specifically block one of these two IL-6 signal pathways. DU145 cells were transfected for 24 h with AR and MMTV-CAT reporter gene. After transfection, the cells were serum starved for 24 h. Next, 20 μM LY294002, P098059 or vehicle was added to serum-free medium 30 min prior to IL-6 treatment. […] The cells were then harvested and AR transactivation was measured by CAT activity. […] Vlahos, C. J. et al., J. Biol. Chem. 269, 5241-5148 (1994). […] Alessi, D. R. et al., J. Biol. Chem. 270, 27489-27494 (1995).
as §3
252. Focus then turned to the two major downstream effectors of PI3K: a serine/threonine kinase (Akt/PKB) and a ribosomal S6 kinase (p70S6k). Franke, T. F. et al., Cell 88,435-437 (1997). […] The transactivation activity was determined after 24 h transfection.
262. The DU145 and PC-3 cells were maintained in Dulbecco's Minimum Essential Medium (DMEM) containing penicillin (25 μg/m1), streptomycin (25 μg/ml), and 5% fetal calf serum (FCS). The LNCaP cells were maintained in RPMI-1640 with 10% FCS. Transfections were performed using the calcium phosphate precipitation method, as previously described. Yeh, S. et al., Proc. Natl. Acad. Sci. USA 93, 5517-5521(1996).
277. The DU145 and PC-3 cells were maintained in Dulbecco's Minimum Essential Medium (DMEM) containing penicillin (25 U/ml), streptomycin (25 μg/ml), and 5% fetal calf serum (FCS). The LNCaP cells were maintained in RPMI-1640-10% FCS. Transfections were performed using the calcium phosphate precipitation method in PC-3 and DU145, as previously described. Yeh, S., Lin, H. K., Kang, H. Y., Thin, T. H., Lin, M. F. & Chang, C. (1999) Proc Natl Acad Sci U S A 96, 5458-63. LNCaP cells were transfected using SuperFect™ according to standard procedures (Qiagen).

[11] = system: AR transactivation; test: AR transactivation, MMTV-luc / (ARE)4-luc luciferase reporter assay; assay type: cell-based; settings: LNCaP MMTV-luc and CWR22 (ARE)4-luc
[12] = system: AR protein levels; test: AR protein (Western blot) and AR mRNA (Northern blot) levels; assay type: cell-based; settings: LNCaP, transfected

For `C[C@]12CCC(=O)C[C@@H]1CC[C@@H]1[C@@H]2CC[C@]2(C)[C@@H](O)CC[C@@H]12` [DHT, 5α-dihydrotestosterone, reference compound], the IL-6 protein expression ([1]; 0, 1, 10 or 50 nM DHT 24 h, then 160 nM PMA 24 h) was “reduced by DHT in a dose-dependant manner”, the “wtAR transactivation response to ligand” value [2] was “responded well” and the p21 promoter activity [3] was “induce p21 promoter activity”. For the same compound, the “LNCaP cell apoptosis, agent per se” value [4] was “only marginal effects on apoptosis”, the “PSA mRNA expression” value ([5]; 10 nM DHT) was “induced PSA mRNA expression; also recorded: increases PSA mRNA expression” and the “IL-6-induced PI3K activity” value ([6]; DHT and IL-6 for 30 min) was “repress PI3K activity significantly”.
With `CC(C)(O)C(=O)Nc1ccc([N+](=O)[O-])c(C(F)(F)F)c1` [HF, hydroxyflutamide] the “Effect on DHT repression of IL-6 protein expression” value [1] was “reverse this induction”, the “Effect on androgen-induced apoptosis” value [7] was “inhibition of androgen-induced apoptosis” and the “mtARt877a transactivation response to ligand” value [2] was “responded much better”. For the same compound, the “wtAR transactivation response to ligand” value [2] was “respond marginally”, the “Effect on DHT/TPA-induced apoptosis” value ([4]; LNCaP parent cells) was “repress this DHT/TPA-mediated apoptosis” and the “Effect on Smad3-enhanced PSA induction” value [5] was “partially repressed”.
For `CCCC(=O)[O-].[Na+]` [NaB], the “Effect on Smad3/Smad4-suppressed AR transactivation” value [8] was “reverse Smad3/Smad4-repressed AR transactivation”.
In the case of `CCCCCCCCCCCCCC(=O)O[C@@H]1[C@@H](C)[C@@]2(O)[C@@H](C=C(CO)C[C@]3(O)C(=O)C(C)=C[C@@H]23)[C@H]2C(C)(C)[C@]12OC(C)=O` [TPA, 12-0-tetradecanoyl phorbol-13-acetate], the “LNCaP cell apoptosis, agent per se” value [4] is reported as “only marginal effects on apoptosis”.
For IGF-1: insulin-like growth factor-1, the “Effect on androgen-induced apoptosis” value [7] was “repress androgen-induced apoptosis”, the “Akt activation (phospho-Akt S473)” value ([9]; 100 ng/ml IGF-1 30 min) was “Activation of Akt” and the “AR phosphorylation in vivo” value ([9]; [32P] labeling) was “strongly induced AR phosphorylation”. The “Effect on DHT/TPA-induced apoptosis” value ([4]; LNCaP cells stably transfected with dAkt) was “only marginal suppressive effects” and the “Effect on DHT/TPA-induced apoptosis” value ([4]; LNCaP parent cells) was “partially repressed DHT/TPA-induced apoptosis”.
With IL-6: a pleiotropic cytokine the “Effect of IL-6 on AR transactivation (CAT activity)” value (“Effect … (CAT activity)” below) ([10]; MAPK pathway inhibited by 20 μM P098059 30 min prior to IL-6) was “repress AR transactivation”, the “Effect … (CAT activity)” value ([10]; PI3K pathway inhibited by 20 μM LY294002 30 min prior to IL-6) was “enhance AR transactivation” and the “Effect … (CAT activity)” value ([10]; none of the MAPK and PI3K pathways blocked, DHT 24 h) was “very limited effect”. For the same compound, the PI3K activity ([6]; PC-3, DU145 cells, 50 μg/ml IL-6 for 30 min) was “increase PI3K activity”.
In the case of “PTEN-PTP: PTEN peptide (aa, 110-163) containing the phosphatase domain (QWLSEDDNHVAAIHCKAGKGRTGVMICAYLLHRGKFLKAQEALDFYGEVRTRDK; left off: a dimerising Fc or GST)”, the “Effect on AR transactivation” value [11] is reported as “suppress of AR transactivation” and the AR degradation [12] is reported as “promote AR degradation”.
